Source: the NIST ThermoML archive (doi:10.1016/j.jct.2012.12.001)
Several values for one entry are separate records, joined by “and”; a condition that tells them apart may be missing. Identical values can stand only once.

Experiment: heat capacity at constant pressure per volume; xn = mol fraction of the nth substance listed
Settings: 101 kPa, Liquid, DSC, x2 = 0.695

CCCCCCCCCCCCCCCCC [heptadecane] + N#Cc1ccccc1
Settings	heat capacity
319 K	1720700 J/K/m3
319.1 K	1720600 J/K/m3
319.2 K	1720500 J/K/m3
319.3 K	1720600 J/K/m3
319.5 K	1721300 J/K/m3
319.6 K	1721200 J/K/m3
319.7 K	1720900 J/K/m3
319.8 K	1720700 J/K/m3
319.9 K	1720500 J/K/m3
320 K	1720400 J/K/m3
320.1 K	1720500 J/K/m3
320.2 K	1720300 J/K/m3
320.3 K	1720800 J/K/m3
320.4 K	1720700 J/K/m3
320.5 K	1720400 J/K/m3
320.61 K	1720200 J/K/m3
320.7 K	1720000 J/K/m3
320.8 K	1720000 J/K/m3
320.9 K	1719900 J/K/m3
321 K	1720300 J/K/m3
321.1 K	1720600 J/K/m3
321.2 K	1720600 J/K/m3
321.3 K	1720600 J/K/m3
321.4 K	1720400 J/K/m3
321.5 K	1720000 J/K/m3
321.61 K	1719900 J/K/m3
321.7 K	1720100 J/K/m3
321.8 K	1720100 J/K/m3
321.89 K	1720400 J/K/m3
322 K	1720500 J/K/m3
322.1 K	1720500 J/K/m3
322.2 K	1720100 J/K/m3
322.3 K	1720100 J/K/m3
322.4 K	1720300 J/K/m3
322.5 K	1720600 J/K/m3
322.6 K	1720600 J/K/m3
322.7 K	1720800 J/K/m3
322.81 K	1721200 J/K/m3
322.9 K	1720800 J/K/m3
323 K	1720200 J/K/m3
323.11 K	1720200 J/K/m3
323.2 K	1720100 J/K/m3
323.3 K	1720100 J/K/m3
323.4 K	1720200 J/K/m3
323.5 K	1720700 J/K/m3
323.6 K	1720800 J/K/m3
323.7 K	1720800 J/K/m3
323.8 K	1720500 J/K/m3
323.9 K	1720400 J/K/m3
324 K	1720200 J/K/m3
324.1 K	1720200 J/K/m3
324.2 K	1720200 J/K/m3
324.3 K	1720300 J/K/m3
324.4 K	1720500 J/K/m3
324.5 K	1720500 J/K/m3
324.6 K	1720500 J/K/m3
324.7 K	1720600 J/K/m3
324.8 K	1720600 J/K/m3
324.9 K	1720400 J/K/m3
325 K	1720700 J/K/m3
325.1 K	1720700 J/K/m3
325.2 K	1720400 J/K/m3
325.3 K	1719500 J/K/m3
325.4 K	1720300 J/K/m3
325.5 K	1720500 J/K/m3
325.6 K	1720300 J/K/m3
325.7 K	1720400 J/K/m3
325.8 K	1720200 J/K/m3
325.9 K	1720200 J/K/m3
326 K	1720600 J/K/m3
326.1 K	1720900 J/K/m3
326.2 K	1720900 J/K/m3
326.3 K	1720900 J/K/m3
326.4 K	1720400 J/K/m3
326.5 K	1720200 J/K/m3
326.6 K	1720300 J/K/m3
326.7 K	1720400 J/K/m3
326.8 K	1720400 J/K/m3
326.9 K	1720700 J/K/m3
327 K	1721000 J/K/m3
327.1 K	1721000 J/K/m3
327.2 K	1721100 J/K/m3
327.3 K	1720800 J/K/m3
327.41 K	1720500 J/K/m3
327.5 K	1720400 J/K/m3
327.6 K	1720500 J/K/m3
327.7 K	1721000 J/K/m3
327.8 K	1721200 J/K/m3
327.9 K	1720800 J/K/m3
328 K	1720800 J/K/m3
328.1 K	1720800 J/K/m3
328.2 K	1720900 J/K/m3
328.3 K	1720700 J/K/m3
328.4 K	1720800 J/K/m3
328.5 K	1721000 J/K/m3
328.6 K	1721500 J/K/m3
328.7 K	1721400 J/K/m3
328.8 K	1721200 J/K/m3
328.9 K	1721300 J/K/m3
329 K	1720900 J/K/m3
329.1 K	1720900 J/K/m3
329.2 K	1720800 J/K/m3
329.3 K	1720700 J/K/m3
329.4 K	1721000 J/K/m3
329.5 K	1721100 J/K/m3
329.61 K	1721300 J/K/m3
329.7 K	1721300 J/K/m3
329.8 K	1721400 J/K/m3
329.9 K	1721400 J/K/m3
330 K	1721300 J/K/m3
330.1 K	1722000 J/K/m3
330.2 K	1722500 J/K/m3
330.3 K	1722400 J/K/m3
330.4 K	1722100 J/K/m3
330.5 K	1721600 J/K/m3
330.61 K	1721600 J/K/m3
330.7 K	1721300 J/K/m3
330.8 K	1721300 J/K/m3
330.9 K	1721300 J/K/m3
331 K	1721500 J/K/m3
331.1 K	1721700 J/K/m3
331.2 K	1721500 J/K/m3
331.3 K	1721200 J/K/m3
331.4 K	1721400 J/K/m3
331.5 K	1721300 J/K/m3
331.6 K	1721300 J/K/m3
331.7 K	1721500 J/K/m3
331.81 K	1721700 J/K/m3
331.9 K	1722000 J/K/m3
332 K	1722000 J/K/m3
332.1 K	1721900 J/K/m3
332.2 K	1722100 J/K/m3
332.3 K	1722100 J/K/m3
332.4 K	1722000 J/K/m3
332.5 K	1722000 J/K/m3
332.6 K	1722200 J/K/m3
332.7 K	1722600 J/K/m3
332.8 K	1722700 J/K/m3
332.9 K	1722700 J/K/m3
333 K	1722600 J/K/m3
333.1 K	1722200 J/K/m3
333.2 K	1721900 J/K/m3
333.31 K	1721900 J/K/m3
333.4 K	1722000 J/K/m3
333.5 K	1722000 J/K/m3
333.6 K	1722200 J/K/m3
333.7 K	1722700 J/K/m3
333.8 K	1722800 J/K/m3
333.9 K	1722600 J/K/m3
334 K	1722600 J/K/m3
334.1 K	1722700 J/K/m3
334.2 K	1722600 J/K/m3
334.3 K	1722900 J/K/m3
334.4 K	1723400 J/K/m3
334.5 K	1723900 J/K/m3
334.6 K	1723800 J/K/m3
334.7 K	1723400 J/K/m3
334.8 K	1723000 J/K/m3
334.9 K	1722900 J/K/m3
335 K	1723100 J/K/m3
335.1 K	1723300 J/K/m3
335.2 K	1723600 J/K/m3
335.3 K	1723700 J/K/m3
335.4 K	1723700 J/K/m3
335.5 K	1723700 J/K/m3
335.6 K	1723600 J/K/m3
335.7 K	1723500 J/K/m3
335.8 K	1723300 J/K/m3
335.9 K	1723400 J/K/m3
336 K	1723600 J/K/m3
336.1 K	1723400 J/K/m3
336.2 K	1723600 J/K/m3
336.3 K	1723200 J/K/m3
336.4 K	1723100 J/K/m3
336.5 K	1723300 J/K/m3
336.6 K	1723400 J/K/m3
336.7 K	1723700 J/K/m3
336.8 K	1724100 J/K/m3
336.9 K	1724400 J/K/m3
337 K	1724100 J/K/m3
337.1 K	1724200 J/K/m3
337.18 K	1724100 J/K/m3
337.32 K	1723700 J/K/m3
337.43 K	1723700 J/K/m3
337.52 K	1724100 J/K/m3
337.6 K	1724300 J/K/m3
337.73 K	1724500 J/K/m3
337.8 K	1724400 J/K/m3
337.9 K	1724900 J/K/m3
338 K	1724800 J/K/m3
338.01 K	1724800 J/K/m3
338.02 K	1724900 J/K/m3
338.03 K	1724900 J/K/m3
338.45 K	1724800 J/K/m3 and 1724900 J/K/m3
338.53 K	1725300 J/K/m3
338.58 K	1725400 J/K/m3
338.59 K	1725200 J/K/m3
338.6 K	1725300 J/K/m3
338.62 K	1725200 J/K/m3
339 K	1724600 J/K/m3 and 1724700 J/K/m3
339.01 K	1724600 J/K/m3 and 1724500 J/K/m3
339.1 K	1724700 J/K/m3 and 1724600 J/K/m3
339.11 K	1724700 J/K/m3 and 1724800 J/K/m3
339.13 K	1724700 J/K/m3
339.2 K	1725100 J/K/m3
